Measurements reported in PubChem BioAssay (NCI).
Several values for one entry are separate records, joined by “and”; a condition that tells them apart may be missing. Equal entries are not always repeated.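 Assay format: 96-well plates, 48-hour exposure. Abbreviation: GI50, concentration required for 50% inhibition of growth. Definition used: TGI = concentration required for complete inhibition of growth.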

How the values were obtained:
Experiment in all cases: NCI anticancer screen, dose series, 48 h
A498 renal = system: A498 renal
HOP-62 NSCLC = system: HOP-62 NSCLC
NCI-H23 lung = system: NCI-H23 lung
OVCAR-3 ovarian = system: OVCAR-3 ovarian
OVCAR-4 ovarian = system: OVCAR-4 ovarian
OVCAR-5 ovarian = system: OVCAR-5 ovarian
OVCAR-8 ovarian = system: OVCAR-8 ovarian
PC-3 prostate = system: PC-3 prostate
SK-MEL-2 melanoma = system: SK-MEL-2 melanoma
SNB-75 CNS = system: SNB-75 CNS
SR leukemia = system: SR leukemia

Structure (SMILES) | TGI (A498 renal) [µM] | TGI (HOP-62 NSCLC) [µM] | TGI (NCI-H23 lung) [µM] | TGI (OVCAR-3 ovarian) [µM] | TGI (OVCAR-4 ovarian) [µM] | TGI (OVCAR-5 ovarian) [µM] | TGI (OVCAR-8 ovarian) [µM] | TGI (PC-3 prostate) [µM] | TGI (SK-MEL-2 melanoma) | TGI (SNB-75 CNS) [µM] | GI50 (A498 renal) [µM] | GI50 (NCI-H23 lung) [µM] | GI50 (OVCAR-4 ovarian) [µM] | GI50 (OVCAR-5 ovarian) [µM] | GI50 (PC-3 prostate) [µM] | GI50 (SK-MEL-2 melanoma) [µM] | GI50 (SNB-75 CNS) [µM] | GI50 (SR leukemia) [µM] | TGI (SR leukemia) [µM] | GI50 (OVCAR-3 ovarian) [µM]
CC(C)(C)/C(O)=C\c1nc2cc(C(F)(F)F)ccc2[nH]c1=O | > 100 | > 100 | > 100 | > 100 | > 100 | > 100 | > 100 | > 100 | > 100 µM | > 100 | – | – | – | – | – | – | – | – | – | –
O=C(CCN1CCCC1)Nc1ccc2c(NCCCc3ccccc3)c3ccccc3nc2c1 | 3.14 | – | 2.41 | – | 2.26 | 2.4 | – | 1.94 | 3.24 µM | 2.41 | 1.31 | 1.12 | 0.812 | 1.12 | 0.566 | 1.69 | 1.17 | 0.467 | 2.55 | –
CC(C)[Si]1(C(C)C)OCC2OC(n3ccc(=O)[nH]c3=O)C(O)(CO)C2O[Si](C(C)C)(C(C)C)O1 (stereo not drawn) | 36.1 | 33.8 | 12.5 | 29.4 | 26.9 | 29.5 | 29.5 | 25.9 | 31 µM | – | – | – | – | – | – | – | – | – | 30 | –
CCN1/C(=C/C(C)=C/c2sc3ccccc3[n+]2CC)Sc2ccccc21 | 1.82 | 0.391 | 0.824 | – | 1.62 | 1.73 | 1.37 | – | 1.1 µM | 1.15 | – | – | – | – | – | – | – | – | 1.75 | –
N#Cc1c(-c2ccc(Cl)cc2)c(C#N)c(=O)n(NS(=O)(=O)c2ccccc2)c1-c1ccccc1 | > 25 | > 25 | – | – | > 25 | > 25 | – | > 25 | > 25 µM | – | – | – | – | – | – | – | – | – | – | –
Nc1ncc(Cc2nc3ccccc3s2)s1 | – | > 100 | – | > 100 | > 100 | > 100 | > 100 | > 100 | > 100 µM | > 100 | – | – | – | – | – | – | – | – | – | –
C=C1C(=O)OC2/C=C(\C)C(O)/C=C\C(C)(O)CC(OC(=O)/C(C)=C/C)C12 (stereo not drawn) | > 100 | > 100 | > 100 | 46.2 | > 100 | > 100 | 50.5 | – | 48.8 µM | > 100 | – | – | – | – | – | – | – | – | 55.7 | –
N#Cc1c(C#N)c(SSc2c(C#N)c(C#N)c(N)n2-c2ccccc2)n(-c2ccccc2)c1N | 44.1 | > 69.1 | > 61 | 45.2 | – | > 62.5 | > 100 | 46.1 | 47.7 µM | > 70 | – | – | – | – | – | – | – | – | – | –
COC(=O)C1=C(O)C(C(=O)OC)[C@]2(O)[C@H](C(=O)OC)[C@H]1C[C@@H](c1ccc(OC)cc1)[C@H]2C(=O)OC (stereo partly drawn) | 34.9 | 85.1 | > 100 | – | 78.2 | 51.9 | > 100 | – | 56.3 µM | 91.8 | – | – | – | – | – | – | – | – | 86.1 | –
Cc1n[nH]c(=O)n1N=C(c1ccccc1)c1ccccc1 | > 100 | > 100 | > 100 | > 100 | > 100 | > 100 | > 100 | > 100 | > 100 µM | – | – | – | – | – | – | – | – | – | – | –
CC1(C)CCc2c(c(N=Nc3ccccc3)c3ccccc3c2O)O1 | 44.1 | > 100 | > 100 | 53.1 | > 100 | > 100 | > 100 | 71.8 | 34.5 µM | – | – | – | – | – | – | – | – | – | – | –
CC(=O)Oc1c(OC(C)=O)c(-c2ccc(O)c(O)c2)c(O)c(O)c1-c1ccc(O)cc1 | > 100 | > 100 | > 100 | > 100 | > 100 | > 100 | > 100 | – | > 100 µM and 92 µM | > 100 | – | – | 59 | – | – | 56.5 | – | – | – | 59.5
C/C(=N\Nc1ccc([N+](=O)[O-])cc1)C(=O)N(C)Nc1ccccc1 | > 100 | > 100 | > 100 | > 100 | > 100 | – | > 100 | – | > 100 µM | > 100 | – | – | – | – | – | – | – | – | > 100 | –
CSCCCCCCCCCCOc1ccc(C=C2C(=C(C#N)C#N)c3ccccc3C2=C(C#N)C#N)cc1 | 33.1 | 32.2 | 48.9 | 30 | 41.3 | 30.2 | 39.6 | 31.4 | 36.7 µM | – | – | – | – | – | – | – | – | – | 52.6 | –
S=C1C=C(c2ccccc2)Sc2ccccc2N1 | – | > 100 | > 100 | > 100 | > 100 | > 100 | > 100 | > 100 | – | > 100 | – | – | – | – | – | – | – | – | > 100 | –
CCOC(=O)c1c(SCCO)n(-c2ccccc2)c(=S)n(-c2ccccc2)c1=O | – | > 100 | > 100 | > 100 | > 100 | > 100 | > 100 | > 100 | > 100 µM | > 100 | – | – | – | – | – | – | – | – | > 100 | –
COC/C=C\[C@@]1(O)CCCC[C@@H]1CC(OC)OC | – | > 100 | 98.7 | > 100 | > 76.4 | > 100 | > 85.8 | > 100 | > 100 µM | > 100 | – | – | – | – | – | – | – | – | 98.9 | –
CCCCCCCCCN1CCC(=O)C(C(=O)OC)C1 (stereo not drawn) | 52.7 | 31.3 | 8.59 | 29.4 | 12.4 | 29 | 21 | – | – | 34 | – | – | – | – | – | – | – | – | 18.1 | –
NNC(=O)c1n[nH]nc1SSc1n[nH]nc1C(=O)NN | – | > 100 | > 100 | > 100 | > 100 | > 100 | > 100 | > 100 | > 100 µM | > 100 | – | – | – | – | – | – | – | – | – | –
Fc1ccc(C(OCCN2CCC3CCC(C2)N3Cc2cc3ccccc3[nH]2)c2ccc(F)cc2)cc1 (stereo not drawn) | 2.99 | 4.54 | 3.05 | 3.39 | 5.68 | 4.18 | 3.1 | 3.25 | 3.16 µM | 3.97 | – | – | – | – | – | – | – | – | – | –
Nc1c(C(=O)c2ccccc2)[nH]c(NCc2ccccc2)c1C(=S)Nc1ccccc1 | > 100 | > 100 | > 100 | > 100 | > 100 | > 100 | > 100 | – | > 100 µM | > 100 | – | – | – | – | – | – | – | – | > 100 | –
